# Laboratory results from publication PMC10436550, “Subacute toxicity evaluations of LPM3480392 in rats, a full µ-opioid receptor biased agonist” (Frontiers in Pharmacology, 2023).
# Tested on: Sprague Dawley (SD) rats
# Test: Organ weight and ratios, 4-week subacute toxicity study
# Format: in vivo, rat
# Procedure: Complete gross necropsies were conducted on all surviving animals at the end of treatment (the day after the last dosing) and recovery periods. The following selected organs were weighed and evaluated in terms of organ/body or organ/brain weight ratios: brain, kidneys, adrenals, testes, ovaries, uterus, epididymides, thymus, spleen, heart and liver. Paired organs were weighed together. Organ-to-body weight ratio = Organ weight(g)/Body weight(g) × 100%, and Organ-to-brain weight ratio = Organ weight(g)/Brain weight(g) × 100%.
# [1] = female rats, 0.6 mg/kg/day, End of dosing phase
# [2] = female rats, 0.6 mg/kg/day, End of recovery phase
# [3] = female rats, 1.2 mg/kg/day, End of dosing phase
# [4] = female rats, 1.2 mg/kg/day, End of recovery phase
# [5] = female rats, 2.4 mg/kg/day, End of dosing phase
# [6] = female rats, 2.4 mg/kg/day, End of recovery phase
# [7] = male rats, 0.6 mg/kg/day, End of dosing phase
# [8] = male rats, 0.6 mg/kg/day, End of recovery phase
structure (smiles),measurement,setting,value
Fc1ccc([C@]2(CCNCc3cccc(Cl)c3)CCO[C@]3(CCOC3)C2)nc1 [LPM3480392],"Organ weight, Brain",[1],1.862 ± 0.102 g
same,"Organ weight, Kidney",[1],1.501 ± 0.123 g
same,"Organ weight, Spleen",[1],0.646 ± 0.159 g
same,"Organ weight, Thymus",[1],0.402 ± 0.053 g
same,"Organ-to-body weight ratio, Brain",[1],0.875 ± 0.063 %
same,"Organ-to-body weight ratio, Kidney",[1],0.704 ± 0.037%
same,"Organ-to-body weight ratio, Spleen",[1],0.301 ± 0.065%
same,"Organ-to-body weight ratio, Thymus",[1],0.189 ± 0.028%
same,"Organ-to-brain weight ratio, Adrenal gland",[1],3.21 ± 0.59%
same,"Organ-to-brain weight ratio, Kidney",[1],80.71 ± 6.29%
same,"Organ-to-brain weight ratio, Spleen",[1],34.73 ± 8.54%
same,"Organ-to-brain weight ratio, Thymus",[1],21.61 ± 3.02%
same,Terminal BW,[1],213.5 ± 15.3 g
same,"Organ weight, Brain",[2],2.018 ± 0.046 g
same,"Organ weight, Kidney",[2],1.626 ± 0.142 g
same,"Organ weight, Spleen",[2],0.530 ± 0.085 g
same,"Organ weight, Thymus",[2],0.308 ± 0.055 g
same,"Organ-to-body weight ratio, Brain",[2],0.804 ± 0.031%
same,"Organ-to-body weight ratio, Kidney",[2],0.647 ± 0.043%
same,"Organ-to-body weight ratio, Spleen",[2],0.210 ± 0.030%
same,"Organ-to-body weight ratio, Thymus",[2],0.122 ± 0.019%
same,"Organ-to-brain weight ratio, Adrenal gland",[2],2.91 ± 0.20%
same,"Organ-to-brain weight ratio, Kidney",[2],80.51 ± 6.21%
same,"Organ-to-brain weight ratio, Spleen",[2],26.23 ± 4.03%
same,"Organ-to-brain weight ratio, Thymus",[2],15.21 ± 2.43%
same,Terminal BW,[2],251.2 ± 9.7 g
same,"Organ weight, Brain",[3],1.916 ± 0.096 g
same,"Organ weight, Kidney",[3],1.518 ± 0.127 g
same,"Organ weight, Spleen",[3],0.637 ± 0.078 g
same,"Organ weight, Thymus",[3],0.380 ± 0.046 g
same,"Organ-to-body weight ratio, Brain",[3],0.881 ± 0.039 %
same,"Organ-to-body weight ratio, Kidney",[3],0.697 ± 0.044%
same,"Organ-to-body weight ratio, Spleen",[3],0.294 ± 0.042%
same,"Organ-to-body weight ratio, Thymus",[3],0.175 ± 0.026%
same,"Organ-to-brain weight ratio, Adrenal gland",[3],2.89 ± 0.37%
same,"Organ-to-brain weight ratio, Kidney",[3],79.14 ± 3.61%
same,"Organ-to-brain weight ratio, Spleen",[3],33.29 ± 3.96%
same,"Organ-to-brain weight ratio, Thymus",[3],19.90 ± 2.88%
same,Terminal BW,[3],217.8 ± 15.0 g
same,"Organ weight, Brain",[4],1.990 ± 0.086 g
same,"Organ weight, Kidney",[4],1.567 ± 0.165 g
same,"Organ weight, Spleen",[4],0.574 ± 0.056 g
same,"Organ weight, Thymus",[4],0.297 ± 0.056 g
same,"Organ-to-body weight ratio, Brain",[4],0.802 ± 0.031%
same,"Organ-to-body weight ratio, Kidney",[4],0.630 ± 0.037%
same,"Organ-to-body weight ratio, Spleen",[4],0.231 ± 0.016%
same,"Organ-to-body weight ratio, Thymus",[4],0.120 ± 0.023%
same,"Organ-to-brain weight ratio, Adrenal gland",[4],2.68 ± 0.38%
same,"Organ-to-brain weight ratio, Kidney",[4],78.65 ± 6.18%
same,"Organ-to-brain weight ratio, Spleen",[4],28.83 ± 2.34%
same,"Organ-to-brain weight ratio, Thymus",[4],14.89 ± 2.48%
same,Terminal BW,[4],248.4 ± 12.5 g
same,"Organ weight, Brain",[5],1.958 ± 0.105 g
same,"Organ weight, Kidney",[5],1.549 ± 0.122 g
same,"Organ weight, Spleen",[5],0.616 ± 0.144 g
same,"Organ weight, Thymus",[5],0.339 ± 0.075 g
same,"Organ-to-body weight ratio, Brain",[5],0.943 ± 0.055%
same,"Organ-to-body weight ratio, Kidney",[5],0.746 ± 0.049%
same,"Organ-to-body weight ratio, Spleen",[5],0.294 ± 0.049%
same,"Organ-to-body weight ratio, Thymus",[5],0.162 ± 0.031%
same,"Organ-to-brain weight ratio, Adrenal gland",[5],2.88 ± 0.24%
same,"Organ-to-brain weight ratio, Kidney",[5],79.23 ± 6.43%
same,"Organ-to-brain weight ratio, Spleen",[5],31.37 ± 6.57%
same,"Organ-to-brain weight ratio, Thymus",[5],17.23 ± 3.33%
same,Terminal BW,[5],208.0 ± 14.6 g
same,"Organ weight, Brain",[6],2.075 ± 0.093 g
same,"Organ weight, Kidney",[6],1.554 ± 0.133 g
same,"Organ weight, Spleen",[6],0.502 ± 0.064 g
same,"Organ weight, Thymus",[6],0.331 ± 0.135 g
same,"Organ-to-body weight ratio, Brain",[6],0.856 ± 0.093%
same,"Organ-to-body weight ratio, Kidney",[6],0.637 ± 0.024%
same,"Organ-to-body weight ratio, Spleen",[6],0.206 ± 0.027%
same,"Organ-to-body weight ratio, Thymus",[6],0.135 ± 0.047%
same,"Organ-to-brain weight ratio, Adrenal gland",[6],2.71 ± 0.42%
same,"Organ-to-brain weight ratio, Kidney",[6],75.09 ± 8.25%
same,"Organ-to-brain weight ratio, Spleen",[6],24.11 ± 2.01%
same,"Organ-to-brain weight ratio, Thymus",[6],16.14 ± 7.16%
same,Terminal BW,[6],244.2 ± 24.2 g
same,"Organ weight, Adrenal gland",[7],0.052 ± 0.011 g
same,"Organ weight, Brain",[7],2.094 ± 0.050 g
same,"Organ weight, Epididymis",[7],0.977 ± 0.089 g
same,"Organ weight, Heart",[7],1.289 ± 0.102 g
same,"Organ weight, Liver",[7],8.125 ± 0.587 g
same,"Organ weight, Spleen",[7],0.741 ± 0.128 g
same,"Organ weight, Thymus",[7],0.477 ± 0.062 g
same,"Organ-to-body weight ratio, Adrenal gland",[7],0.016 ± 0.003%
same,"Organ-to-body weight ratio, Brain",[7],0.650 ± 0.035%
same,"Organ-to-body weight ratio, Epididymis",[7],0.303 ± 0.028%
same,"Organ-to-body weight ratio, Heart",[7],0.399 ± 0.028 %
same,"Organ-to-body weight ratio, Liver",[7],2.516 ± 0.108%
same,"Organ-to-body weight ratio, Spleen",[7],0.229 ± 0.030%
same,"Organ-to-body weight ratio, Thymus",[7],0.147 ± 0.016%
same,"Organ-to-brain weight ratio, Adrenal gland",[7],2.50 ± 0.58%
same,"Organ-to-brain weight ratio, Epididymis",[7],46.67 ± 4.12%
same,"Organ-to-brain weight ratio, Heart",[7],61.61 ± 5.76%
same,"Organ-to-brain weight ratio, Liver",[7],388.28 ± 30.51%
same,"Organ-to-brain weight ratio, Spleen",[7],35.42 ± 6.22%
same,"Organ-to-brain weight ratio, Thymus",[7],22.74 ± 2.77%
same,Terminal BW,[7],322.9 ± 16.9 g
same,"Organ weight, Adrenal gland",[8],0.057 ± 0.008 g
same,"Organ weight, Brain",[8],2.262 ± 0.071 g
same,"Organ weight, Epididymis",[8],1.432 ± 0.140 g
